Experimental data as given in patent US6369273B1, “Chemical compounds and their use to elevate pyruvate dehydrogenase activity” (AstraZeneca AB, priority 1998, dated 2002).

Experiments:
[1] = after repeated administration (Evans and Stacpoole 1982); cited from earlier work
PDH = conditions: cited from earlier work

SMILES | melting point | plasma glucose [1] | activity of PDH (PDH; after acute administration in animals (Vary et al., 1988)) | proportion of PDH in its active form (PDH; single administration, 150 mg/kg, intraperitoneally (Vary et al. 1988))
Cc1cc(C(=O)c2ccccc2)ccc1NC(=O)C(C)(O)C(F)(F)F (centres unmarked) | 123 to 124 °C | – | – | –
C[C@@](O)(C(=O)Nc1ccc(S(=O)(=O)c2ccccc2)cc1F)C(F)(F)F | 121 to 122 °C | – | – | –
O=C(O)C(Cl)Cl [DCA, dichloroacetic acid] | – | significant decrease in plasma glucose | increases the activity of PDH | increased the proportion of PDH in its active form
